Test [1] concerns the target Acetylcholinesterase (Electrophorus electricus) (UniProt O42275). Briefly: Inhibition of Electrophorus electricus AChE using acetylthiocholine iodide as substrate at 10 uM after 30 mins by Ellman's method. A general note: DTNB colorimetry detects thiols as they appear.
Test [2] deals with Acetylcholinesterase (Homo sapiens) (UniProt P22303). The test can be described thus: Ratio of physostigmine IC50 to compound IC50 for acetylcholinesterase (unknown origin).
The target of test [3] is Cyclin-dependent kinase 1/cyclin B1 (Homo sapiens, UniProt P06493). The test can be described thus: Inhibition of CDK1/cyclin-B (unknown origin). Format: protein-complex assay.
The target in test [4] is Cyclin-dependent kinase 2/cyclin E1 (Homo sapiens, UniProt P24941). The test can be described thus: Inhibition of CDK2/cyclin-E (unknown origin). The class given is protein-complex assay.
The target in test [5] is Cyclin-dependent kinase 4/cyclin D2 (Homo sapiens, UniProt P11802+P30279). The test can be described thus: Inhibition of CDK4/cyclin-D2 (unknown origin). Format: protein-complex assay.
In the next test the target is CDK4/Cyclin D3 (Homo sapiens, UniProt P11802). Briefly: Inhibition of CDK4/cyclin-D3 (unknown origin). Format: protein-complex assay.
For test [6], the target named is Cyclin-dependent kinase 5/CDK5 activator 1 (Homo sapiens, UniProt Q00535). Briefly: Inhibition of CDK5/p-35 (unknown origin). The class given is protein-complex assay.
In a further test the target is CDK6/cyclin D2 (Homo sapiens, UniProt P30279+Q00534). Briefly: Inhibition of CDK6/cyclin-D2 (unknown origin). The class given is protein-complex assay.
Test [7] deals with T1, Acetylcholinesterase (Electrophorus electricus, UniProt O42275). Briefly: Inhibition of Electrophorus electricus AChE using acetylthiocholine iodide as substrate after 30 mins by Ellman's method.
Test [8] addresses T2, Cholinesterase (Equus caballus, UniProt P81908). Briefly: Inhibition of equine serum BuChE using S-butyrylthiocholine iodide as substrate after 30 mins by Ellman's method.
Test [9] has as its target T1, Acetylcholinesterase. The test can be described thus: Non-competitive inhibition of Electrophorus electricus AChE using acetylthiocholine iodide as substrate by Lineweaver-Burk reciprocal plot analysis.
The target in test [10] is T2, Cholinesterase. Briefly: Non-competitive inhibition of equine serum BuChE using S-butyrylthiocholine iodide as substrate by Lineweaver-Burk reciprocal plot analysis.

The source made the active and inactive calls. The calls are words filed in the database; no cut-off is given here.

T2 sequence (P81908 whole entry): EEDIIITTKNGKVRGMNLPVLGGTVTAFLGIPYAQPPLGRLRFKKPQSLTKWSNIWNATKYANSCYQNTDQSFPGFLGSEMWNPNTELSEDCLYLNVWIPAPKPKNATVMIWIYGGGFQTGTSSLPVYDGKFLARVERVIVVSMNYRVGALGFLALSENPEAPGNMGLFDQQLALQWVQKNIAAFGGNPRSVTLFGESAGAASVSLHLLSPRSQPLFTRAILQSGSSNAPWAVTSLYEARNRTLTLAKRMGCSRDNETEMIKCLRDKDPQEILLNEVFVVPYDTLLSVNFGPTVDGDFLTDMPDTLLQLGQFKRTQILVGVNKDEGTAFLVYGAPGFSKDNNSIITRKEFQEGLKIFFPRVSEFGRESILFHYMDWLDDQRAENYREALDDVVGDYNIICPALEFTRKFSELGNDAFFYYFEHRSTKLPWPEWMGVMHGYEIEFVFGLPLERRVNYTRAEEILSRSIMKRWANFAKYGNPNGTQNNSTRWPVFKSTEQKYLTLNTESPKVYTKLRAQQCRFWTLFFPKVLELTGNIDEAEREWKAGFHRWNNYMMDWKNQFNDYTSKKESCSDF
T1 sequence (O42275 whole entry): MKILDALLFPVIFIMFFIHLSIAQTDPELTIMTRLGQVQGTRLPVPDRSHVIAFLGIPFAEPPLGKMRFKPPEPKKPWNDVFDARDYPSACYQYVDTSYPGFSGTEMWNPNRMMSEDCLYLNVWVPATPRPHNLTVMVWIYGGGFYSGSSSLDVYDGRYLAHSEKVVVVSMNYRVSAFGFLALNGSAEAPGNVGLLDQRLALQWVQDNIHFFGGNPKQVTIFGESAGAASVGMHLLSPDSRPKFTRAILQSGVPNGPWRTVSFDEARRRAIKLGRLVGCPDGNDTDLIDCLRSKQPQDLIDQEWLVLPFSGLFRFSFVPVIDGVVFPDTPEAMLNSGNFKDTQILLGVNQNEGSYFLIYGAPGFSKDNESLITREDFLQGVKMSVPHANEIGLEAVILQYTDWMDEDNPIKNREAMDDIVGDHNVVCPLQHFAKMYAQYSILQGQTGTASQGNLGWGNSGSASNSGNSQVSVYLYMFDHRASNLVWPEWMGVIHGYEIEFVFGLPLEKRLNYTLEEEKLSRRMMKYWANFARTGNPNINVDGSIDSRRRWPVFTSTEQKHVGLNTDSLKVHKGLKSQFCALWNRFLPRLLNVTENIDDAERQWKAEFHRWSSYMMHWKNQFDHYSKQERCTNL
Sequence of Acetylcholinesterase (Electrophorus electricus) (O42275 24-633 limits assumed): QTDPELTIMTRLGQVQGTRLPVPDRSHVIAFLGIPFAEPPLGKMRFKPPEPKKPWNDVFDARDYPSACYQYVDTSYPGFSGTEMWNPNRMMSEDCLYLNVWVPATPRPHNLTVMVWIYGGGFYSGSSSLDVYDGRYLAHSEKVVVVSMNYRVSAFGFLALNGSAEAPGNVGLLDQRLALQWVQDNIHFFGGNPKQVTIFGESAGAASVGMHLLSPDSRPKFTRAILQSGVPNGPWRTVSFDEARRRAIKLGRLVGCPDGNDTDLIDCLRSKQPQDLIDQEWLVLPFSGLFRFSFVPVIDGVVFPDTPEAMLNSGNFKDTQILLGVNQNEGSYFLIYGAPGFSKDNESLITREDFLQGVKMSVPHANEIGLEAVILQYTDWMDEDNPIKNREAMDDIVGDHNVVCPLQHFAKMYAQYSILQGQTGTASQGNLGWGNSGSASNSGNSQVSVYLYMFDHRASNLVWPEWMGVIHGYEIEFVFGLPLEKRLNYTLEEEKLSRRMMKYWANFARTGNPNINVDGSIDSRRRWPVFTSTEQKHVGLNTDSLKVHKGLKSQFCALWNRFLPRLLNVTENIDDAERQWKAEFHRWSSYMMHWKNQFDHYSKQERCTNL
Sequence of CDK4/Cyclin D3 (P11802 whole entry): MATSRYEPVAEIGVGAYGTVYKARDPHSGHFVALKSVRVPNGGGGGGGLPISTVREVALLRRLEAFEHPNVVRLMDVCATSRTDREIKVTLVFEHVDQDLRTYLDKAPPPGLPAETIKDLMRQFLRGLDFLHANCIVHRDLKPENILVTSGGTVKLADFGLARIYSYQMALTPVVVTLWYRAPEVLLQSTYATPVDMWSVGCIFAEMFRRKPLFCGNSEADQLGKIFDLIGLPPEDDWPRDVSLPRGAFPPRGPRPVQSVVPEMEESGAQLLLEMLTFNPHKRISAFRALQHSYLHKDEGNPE
Sequence of CDK4/Cyclin D3 (P30281 whole entry, further chain): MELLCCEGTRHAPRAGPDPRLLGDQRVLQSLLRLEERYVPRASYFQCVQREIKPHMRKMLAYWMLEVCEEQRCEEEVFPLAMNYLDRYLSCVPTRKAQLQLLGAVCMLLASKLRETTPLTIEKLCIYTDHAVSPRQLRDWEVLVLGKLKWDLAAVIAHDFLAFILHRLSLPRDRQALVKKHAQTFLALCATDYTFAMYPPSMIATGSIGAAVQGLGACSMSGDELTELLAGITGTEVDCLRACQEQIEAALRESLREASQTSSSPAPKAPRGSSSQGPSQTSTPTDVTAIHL
Sequence of Cyclin-dependent kinase 4/cyclin D2 (P11802 whole entry): as the sequence (P11802 whole entry) above
Sequence of Cyclin-dependent kinase 4/cyclin D2 (P30279 whole entry): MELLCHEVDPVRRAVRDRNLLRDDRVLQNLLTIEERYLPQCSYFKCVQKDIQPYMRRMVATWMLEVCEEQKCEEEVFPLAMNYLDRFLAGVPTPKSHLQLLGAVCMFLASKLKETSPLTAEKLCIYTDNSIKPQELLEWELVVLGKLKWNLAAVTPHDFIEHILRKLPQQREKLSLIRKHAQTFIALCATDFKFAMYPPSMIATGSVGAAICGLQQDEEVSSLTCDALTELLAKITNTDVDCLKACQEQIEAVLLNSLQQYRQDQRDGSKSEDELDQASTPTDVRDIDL
Sequence of CDK6/cyclin D2 (Q00534 whole entry): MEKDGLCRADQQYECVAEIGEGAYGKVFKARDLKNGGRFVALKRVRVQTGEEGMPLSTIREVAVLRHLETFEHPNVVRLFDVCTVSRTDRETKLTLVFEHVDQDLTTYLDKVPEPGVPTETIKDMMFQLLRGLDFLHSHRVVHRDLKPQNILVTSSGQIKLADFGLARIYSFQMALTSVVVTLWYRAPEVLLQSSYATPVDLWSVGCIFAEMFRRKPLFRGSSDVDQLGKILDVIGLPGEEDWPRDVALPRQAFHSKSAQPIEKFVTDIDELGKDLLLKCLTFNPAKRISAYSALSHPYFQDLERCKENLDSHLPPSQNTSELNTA
Sequence of CDK6/cyclin D2 (P30279 whole entry): as the sequence (P30279 whole entry) above
Sequence of Cyclin-dependent kinase 5/CDK5 activator 1 (Q00535 whole entry): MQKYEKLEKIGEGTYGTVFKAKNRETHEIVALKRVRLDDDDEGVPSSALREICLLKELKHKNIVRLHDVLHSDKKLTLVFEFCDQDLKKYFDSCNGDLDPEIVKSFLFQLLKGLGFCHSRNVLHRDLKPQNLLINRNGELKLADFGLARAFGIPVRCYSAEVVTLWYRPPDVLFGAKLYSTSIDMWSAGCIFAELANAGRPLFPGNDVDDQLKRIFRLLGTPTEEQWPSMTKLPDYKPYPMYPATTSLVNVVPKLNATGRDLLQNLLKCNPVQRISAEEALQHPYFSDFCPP
Sequence of Cyclin-dependent kinase 5/CDK5 activator 1 (Q15078 whole entry, further chain): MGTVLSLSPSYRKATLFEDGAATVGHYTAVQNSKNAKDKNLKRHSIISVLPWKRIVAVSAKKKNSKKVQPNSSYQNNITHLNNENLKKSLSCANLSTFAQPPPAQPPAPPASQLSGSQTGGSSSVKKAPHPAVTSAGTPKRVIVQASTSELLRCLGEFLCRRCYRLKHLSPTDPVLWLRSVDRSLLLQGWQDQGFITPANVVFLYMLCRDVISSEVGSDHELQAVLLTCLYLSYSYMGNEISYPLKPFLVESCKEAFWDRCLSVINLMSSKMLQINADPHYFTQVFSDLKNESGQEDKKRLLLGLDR
Sequence of Cyclin-dependent kinase 1/cyclin B1 (P06493 whole entry): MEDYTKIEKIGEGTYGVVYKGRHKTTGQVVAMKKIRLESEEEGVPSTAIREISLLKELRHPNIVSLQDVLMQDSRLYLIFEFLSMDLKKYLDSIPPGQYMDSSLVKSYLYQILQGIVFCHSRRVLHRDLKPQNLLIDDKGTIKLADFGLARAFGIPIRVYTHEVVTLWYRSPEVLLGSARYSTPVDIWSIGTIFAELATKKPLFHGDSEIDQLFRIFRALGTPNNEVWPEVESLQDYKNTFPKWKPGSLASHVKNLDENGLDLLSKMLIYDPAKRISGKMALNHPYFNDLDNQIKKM
Sequence of Cyclin-dependent kinase 1/cyclin B1 (P14635 whole entry, further chain): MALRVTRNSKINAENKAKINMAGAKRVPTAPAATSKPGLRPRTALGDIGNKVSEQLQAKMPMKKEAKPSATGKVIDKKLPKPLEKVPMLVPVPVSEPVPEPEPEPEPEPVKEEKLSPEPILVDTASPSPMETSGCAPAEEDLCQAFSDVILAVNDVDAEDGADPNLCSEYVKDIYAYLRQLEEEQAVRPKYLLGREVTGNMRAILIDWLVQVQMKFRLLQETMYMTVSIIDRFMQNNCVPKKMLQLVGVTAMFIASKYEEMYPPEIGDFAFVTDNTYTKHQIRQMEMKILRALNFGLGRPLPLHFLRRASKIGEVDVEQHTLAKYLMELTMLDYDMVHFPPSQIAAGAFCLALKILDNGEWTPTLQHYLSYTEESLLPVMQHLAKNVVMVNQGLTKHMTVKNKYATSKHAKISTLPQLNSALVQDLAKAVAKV

A word on the inhibition: it is the relative decrease from the control value, in per cent. Regarding `O=C(c1ccccc1Cl)c1nccc2c1[nH]c1ccccc12`, in test [1], the inhibition entry is “inactive”.

Take `COC(=O)C1=CO[C@@H](C)[C@H]2C[n+]3ccc4c([nH]c5ccccc54)c3C[C@H]12`: the Ratio IC50 in test [2] is 10.

Usually IC50 stands for the concentration needed to halve the response being measured. Read a low IC50 as higher potency. In general, Ki refers to a dissociation constant, usually derived from enzyme kinetics or from competition with a known ligand. Low values mean tighter binding, high ones weaker binding. Regarding `O=C1c2ccccc2-[n+]2ccc3c([nH]c4ccccc43)c21` [FASCAPLYSIN], the IC50 in test [3] is greater than 100 µM; in test [4] it was greater than 50 µM; in test [5] it was greater than 100 µM; at CDK4/Cyclin D3, greater than 100 µM; in test [6] it was 20 µM; on CDK6/cyclin D2, greater than 50 µM. In addition, the values for the IC50 against Acetylcholinesterase [7] and against Cholinesterase [8] were 1.49 µM and 90.5 µM, respectively. Moreover, the Ki on Acetylcholinesterase [9] was 2.28 µM; at Cholinesterase [10], 48.5 µM. In [1], this compound gave an inhibition of 86%.

The values above are taken from ChEMBL document CHEMBL3217424, “Total synthesis and anti-cholinesterase activity of marine-derived bis-indole alkaloid fascaplysin” (Medchemcomm, 2012).
